Where two headings read alike, the source gives them in different places.
Legend:
[1] = Plasma free fraction (fu) and unbound Cmax (Cmax,u); assay type: in vitro ADME, human; conditions: unbound plasma Cmax
[2] = cited from earlier work
human hepatocytes = conditions: cited from earlier work
PHH = conditions: cited from earlier work
hLiMTs [3] = conditions: cited from earlier work
PHH spheroids = conditions: cited from earlier work
[4] = system: HepG2 C3A spheroid, BSEP, Glu/Gal in HepG2 cells, bioactivation; conditions: cited from earlier work
[5] = read-out: Human plasma Cmax; total plasma Cmax.tot, median of 9 literature references; cited from earlier work
[6] = plasma free fraction; cited from earlier work
[7] = cited from earlier work; remark: listed apart in the source
hLiMTs [8] = assay: Combined HCI (HCS) and cellular ATP 3D assay in hLiMTs
HepaRG spheroids = assay: Combined HCI (HCS) and cellular ATP 3D assay in HepaRG spheroids
[9] = In vitro Assay, ref Proctor 2017
[10] = Microtissue model structural based (HCI), combined HCS and ATP, MEC < 25 × Cmax.tot cut-off

- Human plasma Cmax,u [1]: 294 nM
- hLiMTs <25x Avg Cmax ATP (hLiMTs [8]; hLiMTs, ATP endpoint, cut-off <25x Avg Cmax): -ve
- hLiMTs <100x Avg Cmaxu ATP (hLiMTs [8]; hLiMTs, ATP endpoint, cut-off <100x Avg Cmaxu): -ve
- hLiMTs <25x Avg Cmax HCS (hLiMTs [8]; hLiMTs, HCS endpoints, cut-off <25x Avg Cmax): -ve
- hLiMTs <100x Avg Cmaxu HCS (hLiMTs [8]; hLiMTs, HCS endpoints, cut-off <100x Avg Cmaxu): -ve
- hLiMTs <25x Avg Cmax All (hLiMTs [8]; hLiMTs, all endpoints (ATP and HCS), cut-off <25x Avg Cmax): -ve
- hLiMTs Cmax max All (hLiMTs [8]; hLiMTs, all endpoints, Cmax max used): -ve
- hLiMTs Cmax min All (hLiMTs [8]; hLiMTs, all endpoints, Cmax min used): -ve
- hLiMTs <10 uM All (hLiMTs [8]; hLiMTs, all endpoints, cut-off <10 uM): -ve
- hLiMTs <100x Avg Cmaxu All (hLiMTs [8]; hLiMTs, all endpoints, cut-off <100x Avg Cmaxu): -ve
- HepaRG <25x Avg Cmax ATP (HepaRG spheroids; HepaRG, ATP endpoint, cut-off <25x Avg Cmax): -ve
- HepaRG <100x Avg Cmaxu ATP (HepaRG spheroids; HepaRG, ATP endpoint, cut-off <100x Avg Cmaxu): -ve
- HepaRG <25x Avg Cmax HCS (HepaRG spheroids; HepaRG, HCS endpoints, cut-off <25x Avg Cmax): -ve
- HepaRG <100x Avg Cmaxu HCS (HepaRG spheroids; HepaRG, HCS endpoints, cut-off <100x Avg Cmaxu): -ve
- HepaRG <25x Avg Cmax All (HepaRG spheroids; HepaRG, all endpoints (ATP and HCS), cut-off <25x Avg Cmax): -ve
- HepaRG Cmax max All (HepaRG spheroids; HepaRG, all endpoints, Cmax max used): -ve
- HepaRG Cmax min All (HepaRG spheroids; HepaRG, all endpoints, Cmax min used): -ve
- HepaRG <10 uM All (HepaRG spheroids; HepaRG, all endpoints, cut-off <10 uM): -ve
- HepaRG <100x Avg Cmaxu All (HepaRG spheroids; HepaRG, all endpoints, cut-off <100x Avg Cmaxu): -ve
SMILES: CC(C)(C)NCC(O)COc1cccc2c1CC(O)C(O)C2 (stereo not drawn) [nadolol]
- DILI severity category (Chen et al. [2016]) ([2]; LTKB DILIrank category, ref Chen et al. 2016): Ambiguous
- DILI severity category (Chen 2016) ([2]; human DILI classification, LTKB DILIrank, ref Chen et al. 2016): Ambiguous
- DILI severity category ([2]; human DILI severity, ref Chen et al.): Ambiguous
- DILI +VE (5-8), DILI -VE (-4) ([2]; ref Chen 2016): -VE
- DILI severity category ([2]; ref Chen 2016): Ambiguous DILI-concern
- Structural based (HCI) (human hepatocytes; In vitro Assay, ref Xu 2008): -VE
- DILI in vitro assay prediction, Xu (2008) (human hepatocytes; Structural based (HCI), human hepatocytes, ref Xu et al. 2008): -VE
- PHH/100xCmax, Proctor (2017) (PHH; 2D PHH, ATP, IC50 < 100 × Cmax.tot, ref Proctor et al. 2017): -VE
- PHH/100uM, Proctor (2017) (PHH; 2D PHH, ATP, IC50 threshold 100 µM, ref Proctor et al. 2017): -VE
- PHH ATP <100uM (PHH; [9]): -VE
- hLiMTs ATP <100uM (hLiMTs [3]; [9]): -VE
- hLiMTs/100xCmax, Proctor (2017) (hLiMTs [3]; hLiMTs, ATP, IC50 < 100 × Cmax.tot, ref Proctor et al. 2017): -VE
- hLiMTs/100uM, Proctor (2017) (hLiMTs [3]; hLiMTs, ATP, IC50 threshold 100 µM, ref Proctor et al. 2017): -VE
- hLiMTs ATP <20 x Cmax (PHH spheroids; In vitro Assay, ref Vorrink 2018): -VE
- DILI in vitro assay prediction, Vorrink (2018) (PHH spheroids; PHH spheroids, ATP, 14 days, IC20 < 20 × Cmax.tot, ref Vorrink et al. 2018): -VE
- Bayesian Machine Learning DILI prediction, Williams (2019) ([4]; Bayesian modeling, ref Williams et al. 2019): -VE
- Bayesian Machine Learning ([4]; In vitro Assay, ref Williams 2019): -VE
- Cmax [5]: 420 nM
- fu [6]: 0.700
- Assigned DILI category ([7]; Chen et al. 2016 or literature alignment, ref Chen et al. 2016): 1
- In vivo DILI ([7]; ref Proctor 2017): -VE
- In vivo DILI ([7]; ref Vorrink 2018): -VE
- In vivo DILI ([7]; ref Williams 2019): -VE
- In vivo DILI ([7]; ref Xu 2008): -VE
- DILI prediction hLiMTs (HCS-MEC) (hLiMTs [8]; [10]): -VE
- DILI prediction HepaRG spheroids (HCS-MEC) (HepaRG spheroids; [10]): -VE

— PMC7395068, “The evolution of strategies to minimise the risk of human drug-induced liver injury (DILI) in drug discovery and development” (Archives of Toxicology, 2020)
